The values that follow come from ChEMBL document CHEMBL5729519, “Methods and composition of 4-substituted benzoylpiperazine-1-substituted carbonyls as beta-catenin/B-cell lymphoma 9 inhibitors” (2023).

For the test, the target named is beta-catenin-B-cell lymphoma 9 protein complex (Homo sapiens, UniProt P35222+O00512). Description: Alphascreen Assay: Alphascreen Assays to Determine the Apparent Kd Values for Wild-Type and Mutant β-Catenin/BCL9 InteractionsThe experimental detail using AlphaScreen to determine the apparent Kd values for β-catenin/BCL9 and β-catenine/E-cadherin PPIs has been described previously (Zhang et al. (2015) Anal. Biochem. 469: 43-53). The concentrations of mutant β-catenin proteins used in the assays were the same as that of wild-type β-catenin. The class given is protein-complex assay. Background: Bead proximity is the source of the signal in Alpha formats.
Sequence of beta-catenin-B-cell lymphoma 9 protein complex (O00512 whole entry, stated change not applied): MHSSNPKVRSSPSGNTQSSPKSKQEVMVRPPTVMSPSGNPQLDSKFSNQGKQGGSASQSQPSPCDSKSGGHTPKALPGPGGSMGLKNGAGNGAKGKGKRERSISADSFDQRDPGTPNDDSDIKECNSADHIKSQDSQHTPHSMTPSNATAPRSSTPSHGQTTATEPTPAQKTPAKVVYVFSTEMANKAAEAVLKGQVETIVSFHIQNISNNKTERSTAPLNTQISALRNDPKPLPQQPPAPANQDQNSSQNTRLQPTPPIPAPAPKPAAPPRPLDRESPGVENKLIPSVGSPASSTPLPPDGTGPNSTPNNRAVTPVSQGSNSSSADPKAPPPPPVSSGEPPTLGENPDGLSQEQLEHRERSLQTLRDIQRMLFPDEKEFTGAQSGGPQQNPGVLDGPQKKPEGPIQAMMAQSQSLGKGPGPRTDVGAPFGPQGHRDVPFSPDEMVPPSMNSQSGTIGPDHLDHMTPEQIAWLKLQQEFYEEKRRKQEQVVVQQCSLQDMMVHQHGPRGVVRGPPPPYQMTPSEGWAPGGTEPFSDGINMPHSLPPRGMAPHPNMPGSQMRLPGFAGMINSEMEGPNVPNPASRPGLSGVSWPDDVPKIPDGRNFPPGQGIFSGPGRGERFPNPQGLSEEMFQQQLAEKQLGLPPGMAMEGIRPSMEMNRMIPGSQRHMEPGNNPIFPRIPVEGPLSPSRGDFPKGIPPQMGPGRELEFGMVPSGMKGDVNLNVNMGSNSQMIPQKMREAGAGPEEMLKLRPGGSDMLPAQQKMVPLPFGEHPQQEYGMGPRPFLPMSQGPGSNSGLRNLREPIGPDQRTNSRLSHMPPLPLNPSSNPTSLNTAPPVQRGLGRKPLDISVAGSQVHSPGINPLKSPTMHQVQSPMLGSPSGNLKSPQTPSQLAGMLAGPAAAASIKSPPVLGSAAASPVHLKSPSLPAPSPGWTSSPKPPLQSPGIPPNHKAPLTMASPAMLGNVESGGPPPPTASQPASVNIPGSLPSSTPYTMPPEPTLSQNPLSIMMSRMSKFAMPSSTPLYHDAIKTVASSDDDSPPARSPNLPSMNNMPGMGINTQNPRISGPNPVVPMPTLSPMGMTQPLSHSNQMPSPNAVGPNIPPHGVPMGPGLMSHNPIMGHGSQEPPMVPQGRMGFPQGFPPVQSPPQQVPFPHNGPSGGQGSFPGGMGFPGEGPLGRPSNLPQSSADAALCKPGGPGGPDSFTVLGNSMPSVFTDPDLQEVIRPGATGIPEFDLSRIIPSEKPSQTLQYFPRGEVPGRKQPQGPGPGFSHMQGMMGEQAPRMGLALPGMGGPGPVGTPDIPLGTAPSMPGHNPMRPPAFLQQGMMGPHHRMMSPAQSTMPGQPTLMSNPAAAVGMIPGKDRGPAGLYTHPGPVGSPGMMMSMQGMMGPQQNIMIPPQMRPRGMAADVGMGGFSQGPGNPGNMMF
Sequence of beta-catenin-B-cell lymphoma 9 protein complex (P35222 2-781 limits assumed, stated change not applied): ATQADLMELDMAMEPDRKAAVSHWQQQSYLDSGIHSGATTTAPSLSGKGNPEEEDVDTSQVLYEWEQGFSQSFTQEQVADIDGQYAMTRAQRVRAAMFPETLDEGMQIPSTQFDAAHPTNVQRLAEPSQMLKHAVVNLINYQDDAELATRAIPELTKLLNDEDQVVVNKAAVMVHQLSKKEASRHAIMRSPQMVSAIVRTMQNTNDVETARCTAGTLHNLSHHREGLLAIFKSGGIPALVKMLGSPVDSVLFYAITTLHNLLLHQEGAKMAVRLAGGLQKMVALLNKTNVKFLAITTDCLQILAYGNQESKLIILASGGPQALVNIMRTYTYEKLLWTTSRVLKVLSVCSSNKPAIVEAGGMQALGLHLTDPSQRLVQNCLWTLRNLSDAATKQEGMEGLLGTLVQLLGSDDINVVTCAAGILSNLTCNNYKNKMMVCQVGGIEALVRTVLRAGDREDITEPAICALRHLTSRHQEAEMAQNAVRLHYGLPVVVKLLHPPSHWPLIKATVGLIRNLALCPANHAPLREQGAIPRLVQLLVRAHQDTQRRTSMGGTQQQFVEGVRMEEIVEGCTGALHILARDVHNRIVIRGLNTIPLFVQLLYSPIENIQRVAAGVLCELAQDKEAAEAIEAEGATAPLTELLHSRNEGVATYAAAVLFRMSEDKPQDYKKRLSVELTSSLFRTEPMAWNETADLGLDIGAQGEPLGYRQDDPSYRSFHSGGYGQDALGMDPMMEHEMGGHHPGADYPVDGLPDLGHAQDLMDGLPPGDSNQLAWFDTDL

As to `CC(C)c1cc2c(c(O)c1O)[C@@]1(C(=O)O)CCCC(C)(C)[C@@H]1CC2`, the Ki is 5.3 µM.
